Results published in US9353051B2, “Antiviral drugs for treatment or prevention of dengue infection” (Siga Technologies Inc., priority 2007, dated 2016).

system: Dengue-2 (Strain New Guinea C); experiment: viral yield assay against Dengue-2 in Vero cells; assay type: cell-based; conditions: Dengue virus; Vero cells, MOI 0.1, harvested 48 hours post infection; read-out: Activity (anti-dengue 2 viral activity, EC50)
Procedure: Compounds that were active in the primary screen were also tested for activity in viral yield assays. […] Vero cells in 12-well plates were infected with dengue-2 virus at a multiplicity of infection (MOI) of 0.1, treated with compound (or DMSO as a control), incubated at 37° C., harvested 48 hours post infection and titered on Vero cells as described above. The EC50 was calculated through ExcelFit. Those compounds with activity below 1 μM are indicated with “A”, those with activity between 1 and 10 μM are indicated with “B”, those with activity between 10 and 25 μM with “C”, and those with activity above 25 μM are indicated with “D”.

SMILES | EC50
O=C(Cn1cnc2ccccc2c1=O)Nc1ccc(S(=O)(=O)N2CCCCC2)cc1 [Compound 52, 2-(4-Oxo-4H-quinazolin-3-yl)-N-[4-(piperidine-1-sulfonyl)-phenyl]-acetamide] | > 25 µM
CC1CCCN(S(=O)(=O)c2ccc(NC(=O)Cn3cnc4ccccc4c3=O)cc2)C1 (centres unmarked) [Compound 53, N-[4-(3-Methyl-piperidine-1-sulfonyl)-phenyl]-2-(4-oxo-4H-quinazolin-3-yl)-acetamide] | > 25 µM
COC(=O)CNS(=O)(=O)c1ccc(NC(=O)Cn2cnc3ccccc3c2=O)cc1 [Compound 54, {4-[2-(4-Oxo-4H-quinazolin-3-yl)-acetylamino]-benzene-sulfonylamino}-acetic acid methyl ester] | > 25 µM
CC(C)(C)NS(=O)(=O)c1cccc(NC(=O)Cn2cnc3ccccc3c2=O)c1 [Compound 55, N-(3-tert-Butylsulfamoyl-phenyl)-2-(4-oxo-4H-quinazolin-3-yl)-acetamide] | > 25 µM
CCN(CC)S(=O)(=O)c1ccc(NC(=O)Cn2cnc3sc(-c4ccccc4)cc3c2=O)cc1 [Compound 56, N-(4-Diethylsulfamoyl-phenyl)-2-(4-oxo-6-phenyl-4H-thieno[2,3-d]pyrimidin-3-yl)-acetamide] | > 25 µM
CCN(CC)S(=O)(=O)c1ccc(NC(=O)Cn2cnc3cc(F)ccc3c2=O)cc1 [Compound 57, N-(4-Diethylsulfamoyl-phenyl)-2-(7-fluoro-4-oxo-4H-quinazolin-3-yl)-acetamide] | > 25 µM
CCN(CC)S(=O)(=O)c1ccc(NC(=O)Cn2cnc3cc(OC)c(OC)cc3c2=O)cc1 [Compound 58, N-(4-Diethylsulfamoyl-phenyl)-2-(6,7-dimethoxy-4-oxo-4H-quinazolin-3-yl)-acetamicle] | > 25 µM
CCN(CC)S(=O)(=O)c1ccc(NC(=O)Cn2cnc3scc(-c4ccccc4)c3c2=O)cc1 [Compound 59, N-(4-Diethylsulfamoyl-phenyl)-2-(4-oxo-5-phenyl-4H-thieno[2,3-d]pyrimidin-3-yl)-acetamide] | > 25 µM
CCN(CC)S(=O)(=O)c1ccc(NC(=O)Cn2cnc3cc(NC)c([N+](=O)[O-])cc3c2=O)cc1 [Compound 60, N-(4-Diethylsulfamoyl-phenyl)-2-(7-methylamino-6-nitro-4-oxo-4H-quinazolin-3-yl)-acetamide] | > 25 µM
CCN(CC)S(=O)(=O)c1ccc(NC(=O)Cn2cnc3cc(-c4ccc(OC)cc4)sc3c2=O)cc1 [Compound 61, N-(4-Diethylsulfamoyl-phenyl)-2-[6-(4-methoxy-phenyl)-4-oxo-4H-thieno[3,2-d]pyrimidin-3-yl]-acetamide] | > 25 µM
Cc1cccc2c(=O)n(CC(=O)Nc3ccc(S(=O)(=O)N(C)C)cc3)cnc12 [Compound 62, N-(4-Dimethylsulfamoyl-phenyl)-2-(8-methyl-4-oxo-4H-quinazolin-3-yl)-acetamide] | > 25 µM
CCN(CC)S(=O)(=O)c1ccc(NC(=O)CNC(=O)c2cc(C)cc(C)c2)cc1 [Compound 63, N-[(4-Diethylsulfamoyl-phenylcarbamoyl)-methyl]-3,5-dimethyl-benzamide] | > 25 µM
CCN(CC)S(=O)(=O)c1ccc(NC(=O)CSc2nc3ccccc3c(=O)n2CC)cc1 [Compound 64, N-(4-Diethylsulfamoyl-phenyl)-2-(3-ethyl-4-oxo-3,4-dihydro-quinazolin-2-ylsulfanyl)-acetamide] | > 25 µM
CCN(CC)S(=O)(=O)c1cccc(NC(=O)Cn2cnc3ccccc3c2=O)c1 [Compound 65, N-(3-Diethylsulfamoyl-phenyl)-2-(4-oxo-4H-quinazolin-3-yl)-acetamide] | > 25 µM
CCN(CC)S(=O)(=O)c1ccc(C(=O)OCc2nc3ccccc3c(=O)n2CC(N)=O)cc1 [Compound 66, 4-Diethylsulfamoyl-benzoic acid 3-carbamoylmethyl-4-oxo-3,4-dihydro-quinazolin-2-ylmethyl ester] | > 25 µM
CCN(CC)S(=O)(=O)c1ccc(C(=O)Nn2cnc3ccccc3c2=O)cc1 [Compound 67, 4-Diethylsulfamoyl-N-(4-oxo-4H-quinazolin-3-yl)-benzamide] | > 25 µM
CCN(CC)S(=O)(=O)c1ccc(C(C)NC(=O)CCn2nnc3ccccc3c2=O)cc1 (centres unmarked) [Compound 68, N-[1-(4-Diethylsulfamoyl-phenyl)-ethyl]-3-(4-oxo-4H-benzo[d][1,2,3]triazin-3-yl)-propionamide] | > 25 µM
CCN(CC)S(=O)(=O)c1ccc(CNC(=O)Cn2cnc3ccccc3c2=O)cc1 [Compound 69, N-(4-Diethylsulfamoyl-benzyl)-2-(4-oxo-4H-quinazolin-3-yl)-acetamide] | > 25 µM
CCN(CC)S(=O)(=O)c1ccc(NC(=O)CNC(=O)c2cccc(S(=O)(=O)N(C)C)c2)cc1 [Compound 70, N-[(4-Diethylsulfamoyl-phenylcarbamoyl)-methyl]-3-dimethylsulfamoyl-benzamide] | > 25 µM
CCN(CC)S(=O)(=O)c1ccc(NC(=O)CSc2nc3ccccc3c(=O)n2C)cc1 [Compound 71, N-(4-Diethylsulfamoyl-phenyl)-2-(3-methyl-4-oxo-3,4-dihydro-quinazolin-2-ylsulfanyl)-acetamide] | > 25 µM
CCN(CC)S(=O)(=O)c1ccc(NC(=O)CNC(=O)c2ccc(C)cc2)cc1 [Compound 72, N-[(4-Diethylsulfamoyl-phenylcarbamoyl)-methyl]-4-methyl-benzamide] | > 25 µM
CCN(CC)S(=O)(=O)c1ccc(NC(=O)CNC(=O)c2ccc(S(=O)(=O)NC(C)C)cc2)cc1 [Compound 73, N-[(4-Diethylsulfamoyl-phenylcarbamoyl)-methyl]-4-isopropylsulfamoyl-benzamide] | > 25 µM
CCN(CC)S(=O)(=O)c1ccc(NC(=O)CNC(=O)c2ccc3ccccc3c2)cc1 [Compound 74, Naphthalene-2-carboxylic acid[(4-diethylsulfamoyl-phenylcarbamoyl)-methyl]-amide] | > 25 µM
CCN(CC(=O)Nc1ccc(S(=O)(=O)N(CC)CC)cc1)Cc1nc2cc(Cl)ccc2c(=O)[nH]1 [Compound 75, 2-[(7-Chloro-4-oxo-3,4-dihydro-quinazolin-2-ylmethyl)-ethyl-amino]-N-(4-diethylsulfamoyl-phenyl)-acetamide] | > 25 µM
CCN(CC)C(=O)c1ccc(NCC(=O)Nc2ccc(S(=O)(=O)N(CC)CC)cc2)cc1 [Compound 76, 4-{[(4-Diethylsulfamoyl-phenylcarbamoyl)-methyl]-amino}-N,N-diethyl-benzamide] | > 25 µM
CCN(CC)S(=O)(=O)c1ccc(NC(=O)CCn2nnc3ccccc3c2=O)cc1 [Compound 77, N-(4-Diethylsulfamoyl-phenyl)-3-(4-oxo-4H-benzo[d][1,2,3]triazin-3-yl)-propionamide] | > 25 µM
CCN(CC)S(=O)(=O)c1ccc(NC(=O)Cn2c(=O)n(CC)c(=O)c3ccccc32)cc1 [Compound 78, N-(4-Diethylsulfamoyl-phenyl)-2-(3-ethyl-2,4-dioxo-3,4-dihydro-2H-quinazolin-1-yl)-acetamide] | > 25 µM
CCN(CC)S(=O)(=O)c1ccc(NC(=O)CNC(=O)c2ccc(OC)c(OC)c2)cc1 [Compound 79, N-[(4-Diethylsulfamoyl-phenylcarbamoyl)-methyl]-3,4-dimethoxy-benzamide] | > 25 µM
CCN(CC)S(=O)(=O)c1ccc(NC(=O)CNC(=O)c2ccc(-c3ccccc3)cc2)cc1 [Compound 80, Biphenyl-4-carboxylic acid [(4-diethylsulfamoyl-phenylcarbamoyl)-methyl]-amide] | > 25 µM
